Measurements: paper PMC4077706, “Lifting the Mask: Identification of New Small Molecule Inhibitors of Uropathogenic Escherichia coli Group 2 Capsule Biogenesis” (PLoS ONE, 2014)
Like-named read-outs stand apart in the source and are kept apart here.

What was measured:
[1] = tested on: E. coli strains 536 (K15), CFT073 (K2), DS17 (K5), UTI89 (K1); experiment: Visualization of capsule using Alcian blue staining; assay type: cell-based, Escherichia coli; settings: 200 µM
Adrenergic α1A = biological target: T1, Adrenergic α1A (Rattus norvegicus, UniProt P43140); experiment: Radioligand binding 203100; settings: 10 µM
T1 construct: Wistar Rat submaxillary gland; tissue Eurofins Panlabs (assay Cat #) 203100; host or cells: Wistar rat submaxillary gland

Adrenergic α1D = biological target: T2, Adrenergic α1D (Homo sapiens, UniProt P25100); assay type: binding; settings: 10 µM
T2 construct: host or cells: HEK-293 cells

Adrenergic α2A = biological target: T3, Adrenergic α2A (Homo sapiens, UniProt P08913); experiment: Radioligand binding 203620; settings: 10 µM
T3 construct: host or cells: insect Sf9 cells
Experimental: Vehicle: 1% DMSO Non-Specific Ligand: 10.0 µM Phentolamine
Incubation Buffer: 50 mM Tris-HCl, pH 7.4, 0. 5 mM Quantitation Method: Radioligand Binding
Bmax: 0.18 pmole/mg Protein *
Incubation Time/Temp: 60 minutes @ 25°C Specific Binding: 80% *
Bmax: 0.17 pmole/mg Protein *
Source: Human recombinant insect Sf9 cells Ligand: 1.0 nM [3H]
Vehicle: 1% DMSO Non-Specific Ligand: 10.0 µM WB-4101
Incubation Time/Temp: 60 minutes @ 25°C Specific Binding: 95% *
Incubation Buffer: 50 mM Tris-HCl, pH 7.4, 12.5 mM Quantitation Method: Radioligand Binding
Bmax: 4.60 pmole/mg Protein *
Source: Human recombinant CHO-K1 cells Ligand: 0.030 nM [125I] Cyanopindolol
Incubation Time/Temp: 2 hours @ 25°C Specific Binding: 95% *
Incubation Buffer: 50 mM Tris-HCl, pH 7.4, 1.4 mM Quantitation Method: Radioligand Binding
Ascorbic Acid, 0.001% BSA, 5 mM
EDTA, 1.5 mM CaCl2, 120 mM NaCl
Bmax: 0.072 pmole/mg Protein *

[2] = biological target: T4, Androgen (Testosterone) AR (Rattus norvegicus, UniProt P15207); assay type: binding; settings: 10 µM
T4 construct: Eurofins Panlabs (assay Cat #) 285010; host or cells: E. coli

[3] = biological target: Calcium Channel L-Type, Dihydropyridine (Rattus norvegicus, UniProt P22002); assay type: binding; settings: 10 µM
Cannabinoid CB1 = Cannabinoid CB1 (Homo sapiens, UniProt P21554); assay type: binding; settings: 10 µM
Glutamate, Kainate = experiment: Radioligand binding 232700; parameters: species or system rat; settings: 10 µM
Glutamate, NMDA, Agonism = Glutamate, NMDA, Agonism (Rattus norvegicus, UniProt Q00959); experiment: Radioligand binding 232810; settings: 10 µM
[4] = tested on: Glutamate, NMDA, Phencyclidine; experiment: Radioligand binding 233000; parameters: species or system rat; settings: 10 µM
Histamine H3 = biological target: T5, Histamine H3 (Homo sapiens, UniProt Q9Y5N1); experiment: Radioligand binding 239820; settings: 10 µM
T5 construct: host or cells: CHO-K1 cells

Imidazoline I2, Central = experiment: Radioligand binding 241000; parameters: species or system rat; settings: 10 µM
Muscarinic M2 = biological target: T6, Muscarinic M2 (Homo sapiens, UniProt P08172); experiment: Radioligand binding 252710; settings: 10 µM
T6 construct: host or cells: CHO-K1 cells

Neuropeptide Y Y1 = biological target: T7, Neuropeptide Y Y1 (Homo sapiens, UniProt P25929); experiment: Radioligand binding 257010; settings: 10 µM
T7 construct: Human SK-N-MC cells; host or cells: SK-N-MC cells

Neuropeptide Y Y2 = biological target: T8, Neuropeptide Y Y2 (Homo sapiens, UniProt P49146); assay type: binding; settings: 10 µM
T8 construct: Human KAN-TS cells; host or cells: KAN-TS cells

Opiate µ(OP3, MOP) = biological target: T9, Opiate µ(OP3, MOP) (Homo sapiens, UniProt P35372); assay type: binding; settings: 10 µM
T9 construct: host or cells: CHO-K1 cells

Potassium Channel [KATP] = biological target: T10, Potassium Channel [KATP] (Cricetus cricetus, UniProt Q09427); assay type: binding, hamster; settings: 10 µM
T10 construct: Hamster pancreatic HIT-T15 beta; host or cells: HIT-T15 hamster pancreatic beta cells

Purinergic P2Y = experiment: Radioligand binding 268810; parameters: species or system rat; settings: 10 µM
[5] = biological target: T11, Serotonin (5-Hydroxytryptamine) 5-HT1A (Homo sapiens, UniProt P08908); experiment: Radioligand binding 271110; settings: 10 µM
T11 construct: host or cells: CHO-K1

Thyroid Hormone = Thyroid Hormone (Rattus norvegicus, UniProt P18113); assay type: binding; settings: 10 µM
[6] = biological target: T12, Transporter, Serotonin (5-Hydroxytryptamine) (SERT) (Homo sapiens, UniProt P31645); assay type: binding; settings: 10 µM
T12 construct: host or cells: HEK-293

[7] = biological target: Transporter, Dopamine (DAT) (Homo sapiens, UniProt Q01959); assay type: binding; parameters: host or cells: CHO-K1; settings: 10 µM
[8] = biological target: Serotonin (5-Hydroxytryptamine) 5-HT3 (Homo sapiens, UniProt P46098); assay type: binding; parameters: host or cells: HEK-293; settings: 10 µM
Dopamine D2S = Dopamine D2S (Homo sapiens, UniProt P14416); assay type: binding; parameters: host or cells: CHO cells; settings: 10 µM
Bradykinin B2 = Bradykinin B2 (Homo sapiens, UniProt P30411); assay type: binding; parameters: host or cells: Chem-1 cells; settings: 10 µM
Histamine H2 = Histamine H2 (Homo sapiens, UniProt P25021); experiment: Radioligand binding 239710; parameters: host or cells: CHO-K1 cells; settings: 10 µM
Glutamate, NMDA, Glycine = Glutamate, NMDA, Glycine (Rattus norvegicus, UniProt P35439); assay type: binding; parameters: Wistar Rat cerebral cortex; tissue Eurofins Panlabs 232910; host or cells: Wistar rat cerebral cortex; settings: 10 µM
[9] = pre-treatment of bacteria without pretreatment of the mice

T1 sequence (P43140 whole entry): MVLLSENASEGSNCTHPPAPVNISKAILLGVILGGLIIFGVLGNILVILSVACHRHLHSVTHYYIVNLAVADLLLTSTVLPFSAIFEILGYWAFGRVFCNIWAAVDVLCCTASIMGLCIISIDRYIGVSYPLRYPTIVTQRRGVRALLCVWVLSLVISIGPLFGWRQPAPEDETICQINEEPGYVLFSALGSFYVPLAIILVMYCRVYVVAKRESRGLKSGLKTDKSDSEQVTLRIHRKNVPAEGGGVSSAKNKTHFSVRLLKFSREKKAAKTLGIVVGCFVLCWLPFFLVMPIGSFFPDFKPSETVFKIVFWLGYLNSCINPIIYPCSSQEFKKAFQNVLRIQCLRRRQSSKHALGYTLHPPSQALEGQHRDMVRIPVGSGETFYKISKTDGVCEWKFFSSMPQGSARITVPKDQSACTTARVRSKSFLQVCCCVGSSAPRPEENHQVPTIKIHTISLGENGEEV
Transporter, Dopamine (DAT), sequence (Q01959 whole entry): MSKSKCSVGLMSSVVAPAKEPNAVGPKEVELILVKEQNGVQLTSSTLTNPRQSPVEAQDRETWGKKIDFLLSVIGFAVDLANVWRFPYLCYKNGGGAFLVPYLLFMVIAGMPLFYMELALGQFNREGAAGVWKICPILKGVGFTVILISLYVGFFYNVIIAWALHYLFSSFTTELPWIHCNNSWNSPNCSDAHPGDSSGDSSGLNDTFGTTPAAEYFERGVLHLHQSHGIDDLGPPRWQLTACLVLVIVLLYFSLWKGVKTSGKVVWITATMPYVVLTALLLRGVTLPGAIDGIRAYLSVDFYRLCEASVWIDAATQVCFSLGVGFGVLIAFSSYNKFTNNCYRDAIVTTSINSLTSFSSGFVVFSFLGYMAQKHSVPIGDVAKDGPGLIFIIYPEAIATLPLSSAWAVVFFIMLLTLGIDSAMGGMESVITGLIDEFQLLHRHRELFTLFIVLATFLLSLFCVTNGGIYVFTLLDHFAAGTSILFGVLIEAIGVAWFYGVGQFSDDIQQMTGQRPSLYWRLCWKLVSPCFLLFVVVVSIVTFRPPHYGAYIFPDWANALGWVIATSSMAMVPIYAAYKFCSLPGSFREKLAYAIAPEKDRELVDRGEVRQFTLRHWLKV
Glutamate, NMDA, Agonism, sequence (Q00959 23-1464, other chains not shown): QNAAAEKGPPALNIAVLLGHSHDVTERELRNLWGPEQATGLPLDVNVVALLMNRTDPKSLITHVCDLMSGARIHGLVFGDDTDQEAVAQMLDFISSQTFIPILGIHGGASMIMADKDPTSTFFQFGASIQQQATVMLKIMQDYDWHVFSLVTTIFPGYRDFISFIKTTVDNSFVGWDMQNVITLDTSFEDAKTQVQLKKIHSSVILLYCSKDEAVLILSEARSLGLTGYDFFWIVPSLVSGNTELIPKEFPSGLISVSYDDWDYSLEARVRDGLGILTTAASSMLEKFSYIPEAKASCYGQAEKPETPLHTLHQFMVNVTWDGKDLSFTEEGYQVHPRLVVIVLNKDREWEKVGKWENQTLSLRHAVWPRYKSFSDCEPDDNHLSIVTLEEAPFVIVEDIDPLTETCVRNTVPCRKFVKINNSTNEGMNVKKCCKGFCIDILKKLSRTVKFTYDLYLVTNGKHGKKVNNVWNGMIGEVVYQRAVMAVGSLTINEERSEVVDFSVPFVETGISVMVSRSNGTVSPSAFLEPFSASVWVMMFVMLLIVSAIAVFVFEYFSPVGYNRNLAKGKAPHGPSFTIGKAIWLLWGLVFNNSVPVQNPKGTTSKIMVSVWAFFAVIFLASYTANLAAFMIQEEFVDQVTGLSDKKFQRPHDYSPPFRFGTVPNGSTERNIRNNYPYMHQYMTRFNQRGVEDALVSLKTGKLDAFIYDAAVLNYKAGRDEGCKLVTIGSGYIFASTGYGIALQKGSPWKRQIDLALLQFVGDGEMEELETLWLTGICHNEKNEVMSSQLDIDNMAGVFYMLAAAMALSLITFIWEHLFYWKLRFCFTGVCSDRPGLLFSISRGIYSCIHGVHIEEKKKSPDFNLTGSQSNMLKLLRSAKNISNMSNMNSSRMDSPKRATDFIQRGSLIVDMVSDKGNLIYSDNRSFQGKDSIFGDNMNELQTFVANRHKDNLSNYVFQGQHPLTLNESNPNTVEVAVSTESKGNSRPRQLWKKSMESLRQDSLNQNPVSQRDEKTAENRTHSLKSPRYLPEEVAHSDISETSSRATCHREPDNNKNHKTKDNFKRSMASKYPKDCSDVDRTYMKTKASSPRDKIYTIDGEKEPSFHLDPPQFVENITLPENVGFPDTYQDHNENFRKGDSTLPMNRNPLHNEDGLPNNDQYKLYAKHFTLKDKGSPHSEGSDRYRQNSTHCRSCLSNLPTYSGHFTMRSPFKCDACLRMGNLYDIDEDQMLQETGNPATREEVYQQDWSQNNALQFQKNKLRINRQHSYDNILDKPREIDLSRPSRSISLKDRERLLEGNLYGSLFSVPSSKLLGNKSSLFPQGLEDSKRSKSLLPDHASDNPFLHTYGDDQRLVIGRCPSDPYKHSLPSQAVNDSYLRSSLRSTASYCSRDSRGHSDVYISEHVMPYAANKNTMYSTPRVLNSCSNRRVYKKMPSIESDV
T12 sequence (P31645 whole entry): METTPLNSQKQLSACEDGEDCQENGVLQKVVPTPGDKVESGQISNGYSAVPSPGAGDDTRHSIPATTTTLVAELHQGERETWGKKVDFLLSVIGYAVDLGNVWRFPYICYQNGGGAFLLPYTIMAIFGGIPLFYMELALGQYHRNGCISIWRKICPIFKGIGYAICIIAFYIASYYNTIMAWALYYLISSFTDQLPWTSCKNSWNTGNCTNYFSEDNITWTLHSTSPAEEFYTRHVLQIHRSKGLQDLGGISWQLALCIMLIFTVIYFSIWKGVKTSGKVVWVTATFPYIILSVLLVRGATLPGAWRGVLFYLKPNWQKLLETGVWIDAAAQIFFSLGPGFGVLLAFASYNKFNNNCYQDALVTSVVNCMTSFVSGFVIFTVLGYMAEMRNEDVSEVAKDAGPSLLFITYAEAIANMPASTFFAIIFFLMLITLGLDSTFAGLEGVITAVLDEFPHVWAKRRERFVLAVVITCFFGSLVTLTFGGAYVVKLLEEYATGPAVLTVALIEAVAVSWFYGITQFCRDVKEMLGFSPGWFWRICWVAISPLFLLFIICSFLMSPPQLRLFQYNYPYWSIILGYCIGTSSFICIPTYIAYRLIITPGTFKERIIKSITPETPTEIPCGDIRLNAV
Dopamine D2S, sequence (P14416 other isoform, or with tags, fused parts or gaps): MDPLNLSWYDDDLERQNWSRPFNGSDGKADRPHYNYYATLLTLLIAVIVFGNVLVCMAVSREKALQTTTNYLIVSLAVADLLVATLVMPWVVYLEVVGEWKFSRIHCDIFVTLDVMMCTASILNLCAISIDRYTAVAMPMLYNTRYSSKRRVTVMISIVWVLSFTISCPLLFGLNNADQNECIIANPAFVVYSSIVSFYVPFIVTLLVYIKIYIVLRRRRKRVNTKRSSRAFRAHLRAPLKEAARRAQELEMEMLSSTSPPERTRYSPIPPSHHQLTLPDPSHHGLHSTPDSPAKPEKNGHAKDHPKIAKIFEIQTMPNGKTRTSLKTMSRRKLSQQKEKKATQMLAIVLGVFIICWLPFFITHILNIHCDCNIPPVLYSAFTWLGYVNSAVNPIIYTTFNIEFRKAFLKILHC
T5 sequence (Q9Y5N1 whole entry): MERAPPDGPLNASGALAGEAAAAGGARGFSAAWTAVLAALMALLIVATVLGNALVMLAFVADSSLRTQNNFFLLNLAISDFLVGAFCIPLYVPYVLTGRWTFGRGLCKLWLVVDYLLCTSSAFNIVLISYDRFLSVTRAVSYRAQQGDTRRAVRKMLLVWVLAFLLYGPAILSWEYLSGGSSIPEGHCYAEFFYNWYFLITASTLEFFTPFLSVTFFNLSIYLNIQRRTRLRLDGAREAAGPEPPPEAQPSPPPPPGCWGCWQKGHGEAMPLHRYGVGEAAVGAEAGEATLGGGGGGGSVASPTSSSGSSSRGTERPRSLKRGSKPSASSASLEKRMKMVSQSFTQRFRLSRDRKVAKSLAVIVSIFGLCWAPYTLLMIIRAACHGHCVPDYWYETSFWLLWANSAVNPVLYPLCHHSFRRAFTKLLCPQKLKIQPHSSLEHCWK
T7 sequence (P25929 whole entry): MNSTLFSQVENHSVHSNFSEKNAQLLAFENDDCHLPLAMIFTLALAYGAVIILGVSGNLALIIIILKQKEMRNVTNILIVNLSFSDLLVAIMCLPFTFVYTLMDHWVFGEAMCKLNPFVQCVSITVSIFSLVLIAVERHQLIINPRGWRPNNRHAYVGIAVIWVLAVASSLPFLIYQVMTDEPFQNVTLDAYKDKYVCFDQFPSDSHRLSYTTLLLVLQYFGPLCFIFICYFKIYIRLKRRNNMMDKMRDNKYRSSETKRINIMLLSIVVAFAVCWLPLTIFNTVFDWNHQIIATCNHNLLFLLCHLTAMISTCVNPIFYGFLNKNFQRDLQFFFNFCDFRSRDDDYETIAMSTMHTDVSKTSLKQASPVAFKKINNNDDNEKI
Cannabinoid CB1, sequence (P21554 whole entry): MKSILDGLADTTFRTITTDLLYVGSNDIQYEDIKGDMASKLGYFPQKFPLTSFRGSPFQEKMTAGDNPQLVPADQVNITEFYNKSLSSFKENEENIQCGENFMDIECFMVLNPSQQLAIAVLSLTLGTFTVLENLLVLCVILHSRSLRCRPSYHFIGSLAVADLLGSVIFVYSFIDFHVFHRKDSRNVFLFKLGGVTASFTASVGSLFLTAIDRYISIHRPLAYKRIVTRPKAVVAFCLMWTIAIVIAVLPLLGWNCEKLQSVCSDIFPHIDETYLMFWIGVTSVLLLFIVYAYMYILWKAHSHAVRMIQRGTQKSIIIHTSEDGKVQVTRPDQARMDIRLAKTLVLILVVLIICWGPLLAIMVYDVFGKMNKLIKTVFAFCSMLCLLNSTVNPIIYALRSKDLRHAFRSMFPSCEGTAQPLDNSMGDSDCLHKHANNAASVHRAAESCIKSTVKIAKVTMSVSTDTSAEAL

CCOc1ccc(-c2cc(NC(=O)c3c(F)cccc3F)c(C(=O)O)s2)cc1 [DU011]
reduction in capsular material from CFT073 ([1]; CFT073 (K2 serotype)): slightly less than the other serotypes tested | capsular material, alcian blue stained gel ([1]; strains 536, CFT073, DS17, UTI89): capsule was reduced in each strain | % Inh. (Adrenergic α1A): -3% | % Inh. (Adrenergic α1D): 7% | % Inh. (Adrenergic α2A): -14% | % Inh. [2]: 5% | % Inh. [3]: 18% | % Inh. (Cannabinoid CB1): 20% | % Inh. (Glutamate, Kainate): 3% | % Inh. (Glutamate, NMDA, Agonism): -8% | % Inh. [4]: 2% | % Inh. (Histamine H3): 13% | % Inh. (Imidazoline I2, Central): -23% | % Inh. (Muscarinic M2): 5% | % Inh. (Neuropeptide Y Y1): 2% | % Inh. (Neuropeptide Y Y2): -6% | % Inh. (Opiate µ(OP3, MOP)): 1% | % Inh. (Potassium Channel [KATP]): 12% | % Inh. (Purinergic P2Y): 1% | % Inh. [5]: 11% | % Inh. (Thyroid Hormone): 20% | % Inh. [6]: 5% | body weight (E. coli UTI89; [9]): ongoing weight loss among surviving animals | survival (E. coli UTI89; [9]): 50% | body weight (E. coli UTI89; pretreatment of the bacteria and mice): recovery of pre-infection weights | survival (E. coli UTI89; pretreatment of the bacteria and mice, 48 hrs, 10^8 CFU UTI89 i.p.): 100% | tolerability in mice (E. coli UTI89; subcutaneous 100 µL of 1 mg/ml twice daily): without evident side effects | body weight (E. coli UTI89; subcutaneous DU011 and untreated UTI89): stabilization of weights at the end of the experiment | survival (E. coli UTI89; subcutaneous DU011 and untreated UTI89, 48 hrs): 80% | % Inh. [7]: -13% | % Inh. [8]: -7% | % Inh. (Dopamine D2S): -6% | % Inh. (Bradykinin B2): 4% | % Inh. (Histamine H2): 2% | % Inh. (Glutamate, NMDA, Glycine): 6%
